One data set has as its target P2Y purinoceptor 2 (Homo sapiens, UniProt P41231). The data set is described as follows: Agonist activity at human P2Y2 receptor expressed in human 1321N1 by FLIPR assay. It is filed as functional.
For another data set, the target named is P2Y purinoceptor 1 (Homo sapiens, UniProt P47900). Description: Agonist activity at human cloned P2Y1 receptor expressed in human 1321N1 by FLIPR assay. Type of data set: functional.
Another data set deals with P2Y purinoceptor 4 (Homo sapiens, UniProt P51582). Description: Agonist activity at human cloned P2Y4 receptor expressed in human 1321N1 by FLIPR assay. It is filed as functional.
The nature of data set [1]: Agonist activity at human cloned P2Y6 receptor expressed in human 1321N1 by FLIPR assay. It is filed as functional.
The nature of data set [2]: Metabolic stability in human bronchial epithelial cells after 120 mins. Type of data set: ADME, cell-based, Epithelial cell. The note with it: read-out: Stability.
Data set [3] in a line: Metabolic stability in human bronchial epithelial cells after 180 mins. Type of data set: ADME, cell-based, Epithelial cell. The note with it: read-out: Stability.

The term EC50 denotes the concentration at which the effect is half-maximal. A lower EC50 goes with an effect from little substance.

Chain of P2Y purinoceptor 2 (P41231 whole entry): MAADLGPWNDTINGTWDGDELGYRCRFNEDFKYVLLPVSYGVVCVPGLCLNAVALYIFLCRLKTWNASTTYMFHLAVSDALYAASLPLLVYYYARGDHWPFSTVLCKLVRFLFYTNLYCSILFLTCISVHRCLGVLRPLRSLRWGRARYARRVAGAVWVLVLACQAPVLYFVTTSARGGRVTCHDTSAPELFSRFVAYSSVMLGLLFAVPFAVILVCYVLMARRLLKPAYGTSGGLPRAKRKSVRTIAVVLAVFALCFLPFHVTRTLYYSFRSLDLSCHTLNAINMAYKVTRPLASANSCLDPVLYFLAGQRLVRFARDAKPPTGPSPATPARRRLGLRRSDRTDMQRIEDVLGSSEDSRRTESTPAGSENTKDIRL
Chain of P2Y purinoceptor 1 (P47900 whole entry): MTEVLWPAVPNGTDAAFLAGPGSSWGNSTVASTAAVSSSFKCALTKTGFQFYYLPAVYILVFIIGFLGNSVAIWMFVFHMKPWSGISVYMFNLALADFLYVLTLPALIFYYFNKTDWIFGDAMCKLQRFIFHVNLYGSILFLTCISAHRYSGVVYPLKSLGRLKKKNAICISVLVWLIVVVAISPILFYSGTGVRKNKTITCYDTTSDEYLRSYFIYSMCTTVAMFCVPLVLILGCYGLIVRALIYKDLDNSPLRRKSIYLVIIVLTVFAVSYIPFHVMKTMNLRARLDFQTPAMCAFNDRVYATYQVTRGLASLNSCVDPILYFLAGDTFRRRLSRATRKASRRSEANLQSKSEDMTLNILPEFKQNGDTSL
Chain of P2Y purinoceptor 4 (P51582 whole entry): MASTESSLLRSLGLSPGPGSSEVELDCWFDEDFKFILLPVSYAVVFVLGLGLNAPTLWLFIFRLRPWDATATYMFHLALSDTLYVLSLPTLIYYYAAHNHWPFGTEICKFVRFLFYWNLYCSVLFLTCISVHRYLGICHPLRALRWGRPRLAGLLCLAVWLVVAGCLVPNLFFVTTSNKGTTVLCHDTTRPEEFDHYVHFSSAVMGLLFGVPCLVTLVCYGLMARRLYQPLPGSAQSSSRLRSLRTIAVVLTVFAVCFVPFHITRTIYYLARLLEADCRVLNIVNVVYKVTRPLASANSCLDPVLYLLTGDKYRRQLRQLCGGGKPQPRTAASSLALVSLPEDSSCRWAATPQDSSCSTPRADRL

In the case of `COc1ccc2nc([C@@H]3O[C@H](COP(=O)(O)OP(=O)(O)OP(=O)(O)O)[C@@H](O)[C@H]3O)sc2c1`, at P2Y purinoceptor 2, the EC50 worked out at 0.042 µM. This lies in the double-digit nanomolar range.

For `COc1cccc2sc([C@@H]3O[C@H](COP(=O)(O)OP(=O)(O)OP(=O)(O)O)[C@@H](O)[C@H]3O)nc12`, the EC50 on P2Y purinoceptor 2 stood at 0.7 µM.

For the molecule `Cc1ccc2oc([C@@H]3O[C@H](COP(=O)(O)OP(=O)(O)OP(=O)(O)O)[C@@H](O)[C@H]3O)nc2c1`, a half-maximal effect at P2Y purinoceptor 2 (EC50) was put at 0.39 µM.

As for `O=P(O)(O)OP(=O)(O)OP(=O)(O)OC[C@H]1O[C@@H](c2nc3ccccc3s2)[C@H](O)[C@@H]1O`, the EC50 on P2Y purinoceptor 2 was 0.022 µM; at P2Y purinoceptor 1 it was > 20 µM; at P2Y purinoceptor 4, 4.12 µM; in data set [1], > 20 µM. The remaining at 2 h in data set [2] is 50%. Moreover, the remaining at 3 h in data set [3] is 20%.

`O=P(O)(O)OP(=O)(O)OP(=O)(O)OC[C@H]1O[C@@H](c2nc3ccc(Cl)cc3s2)[C@H](O)[C@@H]1O` showed an EC50 on P2Y purinoceptor 2 of 0.008 µM. In other words, the single-digit nanomolar range.

On P2Y purinoceptor 2, `O=P(O)(O)OP(=O)(O)OP(=O)(O)OC[C@H]1O[C@@H](c2nc3cc(F)ccc3s2)[C@H](O)[C@@H]1O` gave an EC50 of 0.003 µM.

As to `O=P(O)(O)OP(=O)(O)OP(=O)(O)OC[C@H]1O[C@@H](c2nc3cc(C(F)(F)F)ccc3s2)[C@H](O)[C@@H]1O`, the EC50 on P2Y purinoceptor 2 was 0.01 µM; on P2Y purinoceptor 1, > 20 µM; at P2Y purinoceptor 4, > 20 µM; in data set [1], > 20 µM.

With `Cn1c([C@@H]2O[C@H](COP(=O)(O)OP(=O)(O)OP(=O)(O)O)[C@@H](O)[C@H]2O)nc2ccccc21`, it took 0.2 µM to reach a half-maximal effect on P2Y purinoceptor 2 (EC50).

Consider `O=P(O)(O)OP(=O)(O)OP(=O)(O)OC[C@H]1O[C@@H](c2nc3c(F)cc(Cl)cc3s2)[C@H](O)[C@@H]1O`, for which the EC50 on P2Y purinoceptor 2 was 0.007 µM; at P2Y purinoceptor 1 it was > 20 µM; at P2Y purinoceptor 4, 4.23 µM; in data set [1], > 20 µM.

On to `O=c1c2cc(F)ccc2ccn1[C@@H]1O[C@H](COP(=O)(O)OP(=O)(O)OP(=O)(O)O)[C@@H](O)[C@H]1O`, for which, in data set [2], the remaining at 2 h stood at 70%. The remaining at 3 h in data set [3] was 50%.

As to `O=c1ccn([C@@H]2O[C@H](COP(=O)(O)OP(=O)(O)OP(=O)(O)O)[C@@H](O)[C@H]2O)c(=O)[nH]1` [URIDINE TRIPHOSPHATE], the EC50 at P2Y purinoceptor 1 is > 2 µM; in data set [1], 0.424 µM.
